Values of other authors as cited in US10022349B2, “Cadotril particles” (Johnson & Johnson Consumer Inc., priority 2014, dated 2018).

Experiments:
[1] = poor aqueous solubility, dissolution rate limited absorption

SMILES: CC(=O)SCC(Cc1ccccc1)C(=O)NCC(=O)OCc1ccccc1 (racemic) [Racecadotril, (RS)-benzyl N-[3-(acetylthio)-2-benzylpropanoyl]glycinate]
- solubility in water (in words): insoluble in water
- water solubility (room temperature): about 10 micrograms/ml
- Biopharmaceutical Classification System class [1]: class II

SMILES: CC(=O)SC[C@H](Cc1ccccc1)C(=O)NCC(=O)OCc1ccccc1 [dexecadotril, N—[(R)-2-Benzyl-3-(acetylthio)propionyl]glycine benzyl ester]
- solubility in water (in words): insoluble in water

SMILES: CC(=O)SC[C@@H](Cc1ccccc1)C(=O)NCC(=O)OCc1ccccc1 [ecadotril, N—[(S)-2-[(Acetylthio)methyl]-1-oxo-3-phenylpropyl]glycinebenzyl ester]
- solubility in water (in words): insoluble in water
